In US11439657B2, “Cancer stem cell growth inhibitor using miRNA” (CancerStem Tech Inc., priority 2017, dated 2022):

Legend:
[1] = tested on: human large bowel cancer cells (HT29 line, HCT116 line and DLD1 line); experiment: Proliferation assay (absorbance at 450 nm over time); assay type: cell-based; conditions: HT29, HCT116 and DLD1 lines; 50 nM; culture for 96 hours; versus control miRNA; FIG. 13
Experimental: A cell suspension prepared by suspending human large bowel cancer cells (HT29 line, HCT116 line and DLD1 line) in DMEM medium (containing 10% by volume FBS) was seeded in each well of a 96-well plate at 3×10^3 cells/well, followed by culture at 37° C. overnight. Then, a mixture of lipofectamin RNAiMAX, Reagent (final concentration in each well: 0.03 μL/ml) and hsa-miR-3065-3p (final concentration in each well: 50 nM) was added for transfection. Subsequently, culture was carried out for 96 hours, and the absorbance at 450 nm was measured over time. In addition, tests were also performed wider the same condition on a case where a control miRNA (SEQ ID NO: 9) was used (control miRNA, negative control) in place of hsa-miR-3065-3p.
In FIG. 13, the time-course of relative values of the absorbance is shown, in which the relative values were determined when the absorbance after culture for 24 hours from transfection of hsa-miR-3065-3p was 1. […] This is because, as described above, among human large bowel cancer cells (HT29 line, HCT116 line and DLD1 line), cancer stem cells are present, so that hsa-miR-3065-3p is considered to intensively suppress proliferation of the cancer stem cells in particular, leading to the result.

[2] = tested on: human large bowel cancer cells (DLD1 line and HT29 line); experiment: Colony formation assay; assay type: cell-based; conditions: DLD1 and HT29 lines; 50 nM; culture for 10 days; versus control miRNA; FIG. 14
Experimental: A cell suspension prepared by suspending human large bowel cancer cells (DLD1 line and HT29 line) in RPMI medium (containing 10% by volume FBS) was seeded in each well of a 6-well plate at 3×10^5 cells/well, followed by culture for 2 days. Then, the medium was changed to RPMI medium (containing no FBS), and a mixture of lipofectamin RNAiMAX Regent (final concentration in each well: 0.03 μL/ml) and hsa-miR-3065-3p (final concentration in each well: 50 nM) was added for transfection, followed by culture for 8 hours. Then, cells after transfection were recovered and suspended in RPMI medium (containing 10% by volume FBS), and were seeded in each well of a 6-well plate at 500 cells/well, followed by culture for 10 days. Thereafter, the culture supernatant was removed, and cells were fixed with methanol and then stained with crystal violet to count the formed colonies. In addition, tests were also performed under the same condition on a case where a control miRNA (SEQ ID NO: 9) was used (control miRNA, negative control) in place of hsa-miR-3065-3p.

Substance: hsa-miR-3065-3p: human-derived miR-3065-3p; base sequence set forth in SEQ ID NO: 2 as mature miRNA (UCAGCACCAGGAUAUUGUUGGAG; listed as RNA, chemistry not given here; listed as Homo sapiens)
- proliferation inhibitory effect on human large bowel cancer cells [1]: high proliferation inhibitory effect
- colony forming ability of human large bowel cancer cells [2]: able to inhibit the colony forming ability
